According to patent publication US20180360898A1, “USE OF CRANBERRY DERIVED PHENOLIC COMPOUNDS AS ANTIBIOTIC SYNERGIZING AGENT AGAINST PATHOGENIC BACTERIA” (THE ROYAL INSTITUTION FOR THE ADVANCEMENT OF …, priority 2015, published 2018):

What was measured:
P. aeruginosa PAO1 = experiment: Minimum Inhibitory Concentration (MIC); type: cell-based, Pseudomonas aeruginosa; conditions: alone, MHB-II broth
Protocol: (§1) Pure stock cultures were maintained at −80° C. in 30% (v/v) frozen glycerol solution. Starter cultures were prepared by streaking frozen cultures onto LB agar (LB broth: tryptone 10 g/L, yeast extract 5 g/L and NaCl 5 g/L, supplemented with 1.5 w/v % agar (Fisher Scientific, Canada)). After overnight incubation at 37° C., a single colony was inoculated into 10 mL of LB broth and the culture was incubated at 37° C. on an orbital shaker at 150 rpm for time lengths specific to each experiment. LB broth was used for bacterial culture in all experiments unless otherwise specified.
(§2) Minimum Inhibitory Concentration (MIC) was determined by preparing two-fold serial dilutions of each cPACs fraction and antibiotic in Mueller Hinton broth adjusted with Ca^2+ and Mg^2+ (MHB-II, Oxoid, Fisher Scientific, Canada). […] Bacterial growth was assessed by (i) monitoring the optical density of the cell suspension in each well at 600 nm (OD600 nm), and (ii) the resazurin microtitre plate assay. In the resazurin microtitre plate assay, each well of a microtitre plate was supplemented with 20 μM resazurin, incubated in dark for 20 min at room temperature, followed by fluorescence measurements at ex/em 570/590 nm using a TECAN Infinite M200 Pro microplate reader (Tecan Group Ltd., Switzerland). […]

E. coli CFT073 = experiment: Minimum Inhibitory Concentration (MIC); type: cell-based, Escherichia coli; conditions: alone, MHB-II broth
Protocol: as §1, §2

gentamicin
MIC (P. aeruginosa PAO1): 2 µg/mL | MIC (E. coli CFT073): 2 µg/mL
